Values belong to the compound of their own block, whether it stands above or below them.
Columns and labels:
[1] = molecular target: T1, dihydrofolate reductase (DHFR) (Mus musculus, UniProt P00375); settings: reported, Rosowsky et al., J. Med. Chem. 1986; cited from earlier work
T1 sequence (P00375 1-187): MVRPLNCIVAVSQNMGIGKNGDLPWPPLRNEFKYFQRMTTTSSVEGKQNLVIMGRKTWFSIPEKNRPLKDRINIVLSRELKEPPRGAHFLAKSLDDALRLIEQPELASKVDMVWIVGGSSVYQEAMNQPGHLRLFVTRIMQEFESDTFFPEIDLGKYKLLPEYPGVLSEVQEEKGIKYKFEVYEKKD

[2] = tested on: folylpolyglutamate synthetase (FPGS); settings: reported, Rosowsky et al., J. Med. Chem. 1986; cited from earlier work
cell growth in culture = settings: reported, Rosowsky et al., J. Med. Chem. 1986; cited from earlier work

Product decomposition on lyophilization of the ammonium hydroxide solution (lyophilization of dilute ammonium hydroxide solution): minimal
Structure (SMILES): N.N.Nc1nc(N)c2nc(CNc3ccc(C(=O)N[C@@H](CCCNC(=O)c4ccccc4C(=O)O)C(=O)O)cc3)cnc2n1 [compound 8, N^α-(4-Amino-4-deoxypteroyl)N^δ-hemiphthaloyl-L-ornithine ammonium salt]

Stability when dissolved in dilute ammonium hydroxide (dilute ammonium hydroxide solution): relatively stable
Structure (SMILES): Nc1nc(N)c2nc(CNc3ccc(C(=O)N[C@@H](CCCNC(=O)c4ccccc4C(=O)O)C(=O)O)cc3)cnc2n1 [compound 7, N^α-(4-Amino-4-deoxypteroyl)-N^δ-hemiphthaloyl-L-ornithine]

Structure (SMILES): NCCC[C@H](NC(=O)c1ccc(NCc2cnc3nc(N)nc(N)c3n2)cc1)C(=O)O [APA-L-Orn, N^α-(4-amino-4-deoxypteroyl)-L-ornithine]
Inhibition of dihydrofolate reductase (DHFR) [1]: potent inhibitor
Inhibition of folylpolyglutamate synthetase (FPGS) [2]: potent inhibitor
Inhibition of cell growth in culture (cell growth in culture): relatively inactive
